Laboratory results taken from ChEMBL document CHEMBL1150218, “Antitubercular activity of triterpenoids from Lippia turbinata” (J Nat Prod, 2001).
Values after ≈ are worked out from the molar mass of the structure shown.

Columns and labels:
[1] = tested on: Mycobacterium tuberculosis; experiment: Antitubercular activity against Mycobacterium tuberculosis H37Rv ATCC 27294 by radiometric BACTEC 460 system; assay type: functional
Vero = experiment: Cytotoxicity against african green monkey Vero cells; assay type: cell-based; conditions: Chlorocebus sabaeus

Compound | MIC [1] [µM] | IC50 (Vero) [µM]
C/C=C(/C)C(=O)O[C@@H]1[C@@H](O)C(C)(C)C[C@H]2C3=CC[C@@H]4[C@]56CC[C@](O)(OC5)C(C)(C)[C@@H]6CC[C@@]4(C)[C@]3(C)CC[C@@]12C(=O)O | 64 (≈ 37.4 µg/mL) | –
C/C=C(/C)C(=O)O[C@@H]1CC(C)(C)C[C@H]2C3=CC[C@@H]4[C@@]5(C)CCC(=O)C(C)(C)[C@@H]5CC[C@@]4(C)[C@]3(C)CC[C@@]12C(=O)O [LANTADENE A] | 32 (≈ 17.7 µg/mL) | 15
CO[C@H]1/C=C/O[C@@]2(C)Oc3c(C)c(O)c4c(O)c(c(/C=N/N5CCN(C)CC5)c(O)c4c3C2=O)NC(=O)/C(C)=C\C=C\[C@H](C)[C@H](O)[C@@H](C)[C@@H](O)[C@@H](C)[C@H](OC(C)=O)[C@@H]1C [RIFAMPIN] | 0.3 (≈ 0.247 µg/mL) | –
C/C=C(/C)C(=O)O[C@@H]1CC(C)(C)C[C@H]2C3=CC[C@@H]4[C@]56CC[C@@](O)(OC5)C(C)(C)[C@@H]6CC[C@@]4(C)[C@]3(C)CC[C@@]12C(=O)O [CAMARIC ACID] | 64 (≈ 36.4 µg/mL) | –
CC1(C)CC[C@]2(C(=O)O)CC[C@]3(C)C(=CC[C@@H]4[C@]56CC[C@@](O)(OC5)C(C)(C)[C@@H]6CC[C@]43C)[C@@H]2C1 [LANTANOLIC ACID] | > 128 | –
CCC(C)C(=O)O[C@@H]1CC(C)(C)C[C@H]2C3=CC[C@@H]4[C@]56CC[C@](O)(OC5)C(C)(C)[C@@H]6CC[C@@]4(C)[C@]3(C)CC[C@@]12C(=O)O (stereo not given in full) | 128 (≈ 73.1 µg/mL) | –
CC(C)=CC(=O)O[C@@H]1[C@@H](O)C(C)(C)C[C@H]2C3=CC[C@@H]4[C@]56CC[C@](O)(OC5)C(C)(C)[C@@H]6CC[C@@]4(C)[C@]3(C)CC[C@@]12C(=O)O | 128 (≈ 74.9 µg/mL) | –
CC(C)=CC(=O)O[C@@H]1CC(C)(C)C[C@H]2C3=CC[C@@H]4[C@]56CC[C@@](O)(OC5)C(C)(C)[C@@H]6CC[C@@]4(C)[C@]3(C)CC[C@@]12C(=O)O [LANTANILIC ACID] | > 128 | –
C/C=C(\C)C(=O)O[C@@H]1[C@@H](O)C(C)(C)C[C@H]2C3=CC[C@@H]4[C@]56CC[C@](O)(OC5)C(C)(C)[C@@H]6CC[C@@]4(C)[C@]3(C)CC[C@@]12C(=O)O | 128 (≈ 74.9 µg/mL) | –
